Values quoted from earlier work in patent US20020110580A1, “Nutritional composition for improving the efficacy of a lipase inhibitor” (priority 2000, published 2002).

B1: Cholecystokinin (peptide, UniProt P06307 21-115, looked up)
Cholecystokinin: QPVPPADPAGSGLQRAEEAPRRQLRVSQRTDGESRAHLGALLARYIQQARKAPSGRMSIVKNLQNLDPSHRISDRDYMGWMDFGRRSAEEYEYPS
modifications: Cholecystokinin

What was measured:
[1] = individuals receiving CCK

Molecule	gastric emptying of both the solid and fat phases of a mixed meal	CCK release (mixed meal)	reduction in caloric intake [1]
CCCCCCCCCCC[C@@H](C[C@@H]1OC(=O)[C@H]1CCCCCC)OC(=O)[C@H](CC(C)C)NC=O [Orlistat, tetrahydrolipstatin]	accelerated	decreased	–
B1	–	–	16-22%
